Among the data in patent US10676485B2, “Macrocyclic MCL-1 inhibitors and methods of use” (AbbVie Inc., priority 2017, dated 2020) are IC50 and Ki values, retold here.

Assay [1] has as its system NCI-H929 human multiple myeloma tumor cell line. Nature of the assay: NCI-H929 cell viability assay (CellTiter-Glo). The class given is cell-based. Particulars: NCI-H929, read-out: H929 Viability IC50 (μM), 10% FBS, 24 hours of compound treatment.
In assay [2] the test system is AMO-1 human multiple myeloma tumor cell line. Nature of the assay: AMO-1 cell viability assay (CellTiter-Glo). Particulars: AMO1, read-out: AMO-1 Viability IC50 (μM), 10% FBS, 24 hours of compound treatment. In kind it is cell-based.
For a further assay, the target named is GST-MCL-1 (Homo sapiens (Human), UniProt Q07820). Nature of the assay: TR-FRET MCL-1 binding assay (competition with probe F-Bak). As to the method:
For the assay, an acoustic dispenser was used to prepare dilution series from 10 mM test compounds in 100% DMSO and directly transfer 160 nL into low volume 384-well assay plates. 8 μL of a protein/probe/antibody mix was then added to each well resulting in final concentrations listed below: Test compound: 11 three-fold dilutions beginning at 25 μM
The samples were then mixed on a shaker for 1 minute and incubated for an additional 2 hours at room temperature. For each assay plate, a probe/antibody and protein/antibody/probe mixture were included as a negative and a positive control, respectively. Fluorescence was measured on the Envision (Perkin Elmer) using a 340/35 nm excitation filter and 520/525 (F-Bak) and 495/510 nm (Tb-labeled anti-his antibody) emission filters. […] The TR-FRET assay can be performed in the presence of varying concentrations of human serum (HS) or fetal bovine serum (FBS). Compounds were tested both without HS and in the presence of 10% HS.

The mark [3] stands for this setting: read-out: MCL-1 Binding Ki (nM, 10% HS), in the presence of 10% HS.
Setting [4] is: without HS, read-out: MCL-1 Binding Ki.

Where two headings read alike, the source gives them in different places.

Chain of GST-MCL-1 (Q07820 whole entry): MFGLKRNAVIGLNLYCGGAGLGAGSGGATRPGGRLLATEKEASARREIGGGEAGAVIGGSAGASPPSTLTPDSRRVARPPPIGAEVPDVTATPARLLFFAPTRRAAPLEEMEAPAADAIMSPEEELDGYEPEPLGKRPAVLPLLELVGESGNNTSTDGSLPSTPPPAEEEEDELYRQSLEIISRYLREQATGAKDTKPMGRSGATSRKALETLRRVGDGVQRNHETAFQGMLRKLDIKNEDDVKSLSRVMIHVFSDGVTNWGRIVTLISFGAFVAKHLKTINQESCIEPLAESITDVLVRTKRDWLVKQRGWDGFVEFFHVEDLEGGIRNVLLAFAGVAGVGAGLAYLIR

As for `Cc1c(Cl)c2c(Cl)c(C)c1-c1c(-c3ccc(F)cc3)sc3ncnc(c13)O[C@@H](C(=O)O)Cc1cc(ccc1OCc1ccnc(-c3ccc(OC[C@H]4COCCO4)cc3)n1)OC[C@@H](CN1CCN(C)CC1)O2` [Example 2, (7R,16R)-19,23-dichloro-10-{[2-(4-{[(2R)-1,4-dioxan-2-yl]methoxy}phenyl)pyrimidin-4-yl]methoxy}-1-(4-fluorophenyl)-20,22-dimethyl-16-[(4-methylpiperazin-1-yl)methyl]-7,8,15,16-tetrahydro-18,21-etheno-13,9-(metheno)-6,14,17-trioxa-2-thia-3,5-diazacyclononadeca[1,2,3-cd]indene-7-carboxylic acid], the IC50 came out at 0.0033 µM in assay [1] and 0.00019 µM in assay [2]. Further, the Ki amounted to 1.04 nM on GST-MCL-1 (setting [3]) and 0.052 nM at GST-MCL-1 (setting [4]).

Regarding `Cc1c2ccc(c1Cl)O[C@H](CN1CCN(C)CC1)COc1ccc(OCc3ccnc(C4COCCO4)n3)c(c1)C[C@H](C(=O)O)Oc1ncnc3sc(-c4ccc(F)cc4)c-2c13` (stereo partly drawn) [Example 4, (7R,16R,21S)-19-chloro-10-{[2-(1,4-dioxan-2-yl)pyrimidin-4-yl]methoxy}-1-(4-fluorophenyl)-20-methyl-16-[(4-methylpiperazin-1-yl)methyl]-7,8,15,16-tetrahydro-18,21-etheno-13,9-(metheno)-6,14,17-trioxa-2-thia-3,5-diazacyclononadeca[1,2,3-cd]indene-7-carboxylic acid], the IC50 came out at 0.00572 µM in assay [1] and 0.00273 µM in assay [2]. In addition, the figures for the Ki at GST-MCL-1 (setting [3]) and on GST-MCL-1 (setting [4]) were 0.32 nM and 0.055 nM, respectively.

Consider `Cc1c(Cl)c2c(Cl)c(C)c1-c1c(-c3ccc(F)cc3)sc3ncnc(c13)O[C@@H](C(=O)O)Cc1cc(ccc1OCc1ccnc(-c3ccc(OC[C@H]4COCCO4)nc3)n1)OC[C@@H](CN1CCN(C)CC1)O2` [Example 5, (7R,16R)-19,23-dichloro-10-{[2-(6-{[(2R)-1,4-dioxan-2-yl]methoxy}pyridin-3-yl)pyrimidin-4-yl]methoxy}-1-(4-fluorophenyl)-20,22-dimethyl-16-[(4-methylpiperazin-1-yl)methyl]-7,8,15,16-tetrahydro-18,21-etheno-13,9-(metheno)-6,14,17-trioxa-2-thia-3,5-diazacyclononadeca[1,2,3-cd]indene-7-carboxylic acid], for which the half-inhibitory concentration (IC50) in assay [1] turned out to be 0.00037 µM; in assay [2], 0.000178 µM. The results for the Ki on GST-MCL-1 (setting [3]) and at GST-MCL-1 (setting [4]) were 0.71 nM and 0.048 nM, respectively.

For `Cc1c(Cl)c2c(Cl)c(C)c1-c1c(-c3ccc(F)cc3)sc3ncnc(c13)O[C@@H](C(=O)O)Cc1cc(ccc1OCc1ccnc(-c3ccc(OC[C@@H]4COCCO4)nc3)n1)OC[C@@H](CN1CCN(C)CC1)O2` [Example 6, (7R,16R)-19,23-dichloro-10-{[2-(6-{[(2S)-1,4-dioxan-2-yl]methoxy}pyridin-3-yl)pyrimidin-4-yl]methoxy}-1-(4-fluorophenyl)-20,22-dimethyl-16-[(4-methylpiperazin-1-yl)methyl]-7,8,15,16-tetrahydro-18,21-etheno-13,9-(metheno)-6,14,17-trioxa-2-thia-3,5-diazacyclononadeca[1,2,3-cd]indene-7-carboxylic acid], the IC50 in assay [1] came to 0.000359 µM; in assay [2], 0.000135 µM. The figures for the Ki on GST-MCL-1 (setting [3]) and on GST-MCL-1 (setting [4]) were 6.09 nM and 0.926 nM, respectively.

As to `Cc1c(Cl)c2c(Cl)c(C)c1-c1c(-c3ccc(F)cc3)sc3ncnc(c13)O[C@@H](C(=O)O)Cc1cc(ccc1OCc1ccnc([C@H]3CC[C@H](OC[C@H]4COCCO4)CC3)n1)OC[C@@H](CN1CCN(C)CC1)O2` [Example 9, (7R,16R)-19,23-dichloro-10-({2-[(1R,4r)-4-{[(2R)-1,4-dioxan-2-yl]methoxy}cyclohexyl]pyrimidin-4-yl}methoxy)-1-(4-fluorophenyl)-20,22-dimethyl-16-[(4-methylpiperazin-1-yl)methyl]-7,8,15,16-tetrahydro-18,21-etheno-13,9-(metheno)-6,14,17-trioxa-2-thia-3,5-diazacyclononadeca[1,2,3-cd]indene-7-carboxylic acid], the values for the IC50 in assay [1] and in assay [2] were 0.000245 µM and 0.000165 µM, respectively. Moreover, the inhibition constant Ki on GST-MCL-1 (setting [3]) was determined as 0.1 nM; on GST-MCL-1 (setting [4]) it was 0.005 nM.

As for `Cc1c(Cl)c2c(Cl)c(C)c1-c1c(-c3ccc(F)cc3)sc3ncnc(c13)O[C@@H](C(=O)O)Cc1cc(ccc1OCc1ccnc(N3CCC(OC[C@H]4COCCO4)CC3)n1)OC[C@@H](CN1CCN(C)CC1)O2` [Example 10, (7R,16R)-19,23-dichloro-10-{[2-(4-{[(2R)-1,4-dioxan-2-yl]methoxy}piperidin-1-yl)pyrimidin-4-yl]methoxy}-1-(4-fluorophenyl)-20,22-dimethyl-16-[(4-methylpiperazin-1-yl)methyl]-7,8,15,16-tetrahydro-18,21-etheno-13,9-(metheno)-6,14,17-trioxa-2-thia-3,5-diazacyclononadeca[1,2,3-cd]indene-7-carboxylic acid], the figures for the IC50 in assay [1] and in assay [2] were 0.00217 µM and 0.000502 µM, respectively. Also, the Ki on GST-MCL-1 (setting [3]) worked out at 3.07 nM; at GST-MCL-1 (setting [4]) it was 0.346 nM.

On to `Cc1c(Cl)c2c(Cl)c(C)c1-c1c(-c3ccc(F)cc3)sc3ncnc(c13)O[C@@H](C(=O)O)Cc1cc(ccc1OCc1ccnc(C3(COC[C@H]4COCCO4)CCC3)n1)OC[C@@H](CN1CCN(C)CC1)O2` [Example 11, (7R,16R)-19,23-dichloro-10-({2-[1-({[(2S)-1,4-dioxan-2-yl]methoxy}methyl)cyclobutyl]pyrimidin-4-yl}methoxy)-1-(4-fluorophenyl)-20,22-dimethyl-16-[(4-methylpiperazin-1-yl)methyl]-7,8,15,16-tetrahydro-18,21-etheno-13,9-(metheno)-6,14,17-trioxa-2-thia-3,5-diazacyclononadeca[1,2,3-cd]indene-7-carboxylic acid], for which the IC50 in assay [1] was 0.000545 µM; in assay [2], 0.000188 µM.

As for `Cc1c(Cl)c2c(Cl)c(C)c1-c1c(-c3ccc(F)cc3)sc3ncnc(c13)O[C@@H](C(=O)O)Cc1cc(ccc1OCc1ccnc(N3CC(COC[C@H]4COCCO4)C3)n1)OC[C@@H](CN1CCN(C)CC1)O2` [Example 12, (7R,16R)-19,23-dichloro-10-({2-[3-({[(2S)-1,4-dioxan-2-yl]methoxy}methyl)azetidin-1-yl]pyrimidin-4-yl}methoxy)-1-(4-fluorophenyl)-20,22-dimethyl-16-[(4-methylpiperazin-1-yl)methyl]-7,8,15,16-tetrahydro-18,21-etheno-9,13-(metheno)-6,14,17-trioxa-2-thia-3,5-diazacyclononadeca[1,2,3-cd]indene-7-carboxylic acid], the IC50 in assay [1] turned out to be 0.00208 µM; in assay [2] it was 0.00104 µM. In addition, the Ki on GST-MCL-1 (setting [3]) is 0.61 nM; on GST-MCL-1 (setting [4]), 0.076 nM.

On to `Cc1c(Cl)c2c(Cl)c(C)c1-c1c(-c3ccc(F)cc3)sc3ncnc(c13)O[C@@H](C(=O)O)Cc1cc(ccc1OCc1ccnc(N3CC(COC[C@@H]4COCCO4)C3)n1)OC[C@@H](CN1CCN(C)CC1)O2` [Example 13, (7R,16R)-19,23-dichloro-10-({2-[3-({[(2R)-1,4-dioxan-2-yl]methoxy}methyl)azetidin-1-yl]pyrimidin-4-yl}methoxy)-1-(4-fluorophenyl)-20,22-dimethyl-16-[(4-methylpiperazin-1-yl)methyl]-7,8,15,16-tetrahydro-18,21-etheno-9,13-(metheno)-6,14,17-trioxa-2-thia-3,5-diazacyclononadeca[1,2,3-cd]indene-7-carboxylic acid], for which the IC50 in assay [1] stood at 0.00311 µM; in assay [2], 0.00126 µM. Moreover, the Ki on GST-MCL-1 (setting [3]) was 1.07 nM; on GST-MCL-1 (setting [4]), 0.079 nM.

Regarding `Cc1c(Cl)c2c(Cl)c(C)c1-c1c(-c3ccc(F)cc3)sc3ncnc(c13)O[C@@H](C(=O)O)Cc1cc(ccc1OCc1ccnc([C@H]3CC[C@H](OCC4COCO4)CC3)n1)OC[C@@H](CN1CCN(C)CC1)O2` (stereo partly drawn) [Example 14, (7R,16R)-19,23-dichloro-10-[(2-{(1r,4r)-4-[(1,3-dioxolan-4-yl)methoxy]cyclohexyl}pyrimidin-4-yl)methoxy]-1-(4-fluorophenyl)-20,22-dimethyl-16-[(4-methylpiperazin-1-yl)methyl]-7,8,15,16-tetrahydro-18,21-etheno-13,9-(metheno)-6,14,17-trioxa-2-thia-3,5-diazacyclononadeca[1,2,3-cd]indene-7-carboxylic acid], the IC50 stood at 0.000236 µM in assay [1] and 0.000114 µM in assay [2]. In addition, the Ki stood at 0.09 nM on GST-MCL-1 (setting [3]) and 0.006 nM on GST-MCL-1 (setting [4]).

For `Cc1c(Cl)c2c(Cl)c(C)c1-c1c(-c3ccc(F)cc3)sc3ncnc(c13)O[C@@H](C(=O)O)Cc1cc(ccc1OCc1ccnc([C@H]3CC[C@@H](OCC4COCCO4)CC3)n1)OC[C@@H](CN1CCN(C)CC1)O2` (stereo partly drawn) [Example 15, (7R,16R)-19,23-dichloro-10-[(2-{(1s,4s)-4-[(1,4-dioxan-2-yl)methoxy]cyclohexyl}pyrimidin-4-yl)methoxy]-1-(4-fluorophenyl)-20,22-dimethyl-16-[(4-methylpiperazin-1-yl)methyl]-7,8,15,16-tetrahydro-18,21-etheno-13,9-(metheno)-6,14,17-trioxa-2-thia-3,5-diazacyclononadeca[1,2,3-cd]indene-7-carboxylic acid], the IC50 in assay [1] was 0.000294 µM; in assay [2], 0.000156 µM. The results for the Ki on GST-MCL-1 (setting [3]) and on GST-MCL-1 (setting [4]) were 0.15 nM and 0.013 nM, respectively.
